Source: patent publication US12552783B2, “Modulators of proteolysis and associated methods of use” (Arvinas Operations, Inc., priority 2018, dated 2026)

Target: KRas (Homo sapiens, UniProt P01116, G12C)
Experiment: KRas degradation in NCI-H2030 cells by Western blot, normalized to GAPDH (data of Table 14)
Format: cell-based
Design: host or cells: NCI-H2030
Details: for Percent Degradation at Indicated Concentration (μM): H2030; for Dmax: NCI-H2030
Procedure, shortened: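 Both lines are homozygous for KRas G12C and were serum-starved for 24 h before treatment with compound at 0.3, 1 or 3 μM in 0.1% DMSO: 24 h for VHL-based compounds, 72 h for the rest. Western blot of 10 μg lysate gave KRas signal normalized to GAPDH, and percent degradation was expressed relative to the DMSO control.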

Percent Degradation at Indicated Concentration (μM) (0.3 μM) | Percent Degradation at Indicated Concentration (μM) (1 μM) | Percent Degradation at Indicated Concentration (μM) (3 μM) | Dmax | Percent Degradation at Indicated Concentration (μM): 0.3 (H2030 cells, 0.3 μM) | Percent Degradation at Indicated Concentration (μM): 1 (H2030 cells, 1 μM) | Percent Degradation at Indicated Concentration (μM): 3 (H2030 cells, 3 μM) | Dmax (H2030 cells) | Compound
C (Percent Degradation: C ≤ 35) | C (Percent Degradation: C ≤ 35) | C (Percent Degradation: C ≤ 35) | ≤ 35% |  |  |  |  | C=CC(=O)N1CCN(c2nc(NCCC(=O)N(C)CCOCCOCCOCCNC(=O)c3ccc(NC(=O)[C@@H]4N[C@@H](CC(C)(C)C)[C@](C#N)(c5ccc(Cl)cc5F)[C@H]4c4cccc(Cl)c4F)c(OC)c3)nc3c(F)c(-c4c(O)cccc4F)c(Cl)cc23)CC1 (atropisomer, axis not shown) [compound 311, (2R,3S,4R,5S)-N-(4-((15-((4-(4-acryloylpiperazin-1-yl)-6-chloro-8-fluoro-7-((S)-2-fluoro-6-hydroxyphenyl)quinazolin-2-yl)amino)-12-methyl-13-oxo-3,6,9-trioxa-12-azapentadecyl)carbamoyl)-2-methoxyphenyl)-3-(3-chloro-2-fluorophenyl)-4-(4-chloro-2-fluorophenyl)-4-cyano-5-neopentylpyrrolidine-2-carboxamide]
 |  | C (Percent Degradation: C ≤ 35) |  |  |  |  |  | C=CC(=O)N1CCN(c2nc(NCCC(=O)N(C)CCOCCOCCOCCOCC(=O)N[C@H](C(=O)N3C[C@H](O)C[C@H]3C(=O)N[C@@H](C)c3ccc(-c4scnc4C)cc3)C(C)(C)C)nc3c(F)c(-c4cc(O)cc5ccccc45)c(Cl)cc23)CC1 (racemic) [compound 195, (2RS,4SR)-1-((RS)-21-((4-(4-acryloylpiperazin-1-yl)-6-chloro-8-fluoro-7-((RS)-3-hydroxynaphthalen-1-yl)quinazolin-2-yl)amino)-2-(tert-butyl)-18-methyl-4,19-dioxo-6,9,12,15-tetraoxa-3,18-diazahenicosanoyl)-4-hydroxy-N-((RS)-1-(4-(4-methylthiazol-5-yl)phenyl)ethyl)pyrrolidine-2-carboxamide]
 |  |  |  | C (C ≤ 35) | C (C ≤ 35) | C (C ≤ 35) | ≤ 35% | CCC(=O)N1CCN(c2nc(NCCC(=O)N(C)CCOCCOCCNc3cccc4c3C(=O)N(C3CCC(=O)NC3=O)C4=O)nc3c(F)c(-c4cc(O)cc5ccccc45)c(Cl)cc23)CC1 (stereo not shown) [compound 43, 3-((6-chloro-8-fluoro-7-(3-hydroxynaphthalen-1-yl)-4-(4-propionylpiperazin-1-yl)quinazolin-2-yl)amino)-N-(2-(2-(2-((2-(2,6-dioxopiperidin-3-yl)-1,3-dioxoisoindolin-4-yl)amino)ethoxy)ethoxy)ethyl)-N-methylpropanamide]
 |  |  |  | C (C ≤ 35) | C (C ≤ 35) | C (C ≤ 35) | ≤ 35% | CCC(=O)N1CCN(c2nc(NCCC(=O)N(C)CCOCCOCCOCCNc3cccc4c3C(=O)N(C3CCC(=O)NC3=O)C4=O)nc3c(F)c(-c4cc(O)cc5ccccc45)c(Cl)cc23)CC1 (stereo not shown) [compound 44]
 |  |  |  | C (C ≤ 35) | C (C ≤ 35) | C (C ≤ 35) | ≤ 35% | CCC(=O)N1CCN(c2nc(NCCC(=O)N(C)CCOCCOCCOCCOCCNc3cccc4c3C(=O)N(C3CCC(=O)NC3=O)C4=O)nc3c(F)c(-c4cc(O)cc5ccccc45)c(Cl)cc23)CC1 (stereo not shown) [compound 45, 3-((6-chloro-8-fluoro-7-(3-hydroxynaphthalen-1-yl)-4-(4-propionylpiperazin-1-yl)quinazolin-2-yl)amino)-N-(14-((2-(2,6-dioxopiperidin-3-yl)-1,3-dioxoisoindolin-4-yl)amino)-3,6,9,12-tetraoxatetradecyl)-N-methylpropanamide]
 |  |  |  | C (C ≤ 35) | C (C ≤ 35) | C (C ≤ 35) | ≤ 35% | CCC(=O)N1CCN(c2nc(NCCC(=O)N(C)CCOc3ccc4c(c3)C(=O)N(C3CCC(=O)NC3=O)C4=O)nc3c(F)c(-c4cc(O)cc5ccccc45)c(Cl)cc23)CC1 (stereo not shown) [compound 46, 3-((6-chloro-8-fluoro-7-(3-hydroxynaphthalen-1-yl)-4-(4-propionylpiperazin-1-yl)quinazolin-2-yl)amino)-N-(2-((2-(2,6-dioxopiperidin-3-yl)-1,3-dioxoisoindolin-5-yl)oxy)ethyl)-N-methylpropanamide]

The next lines start with the compound.

Compound | Percent Degradation at Indicated Concentration (μM) (0.3 μM) | Percent Degradation at Indicated Concentration (μM) (1 μM) | Percent Degradation at Indicated Concentration (μM) (3 μM) | Dmax | Percent Degradation at Indicated Concentration (μM): 0.3 (H2030 cells, 0.3 μM) | Percent Degradation at Indicated Concentration (μM): 1 (H2030 cells, 1 μM) | Percent Degradation at Indicated Concentration (μM): 3 (H2030 cells, 3 μM) | Dmax (H2030 cells)
CN(CCOCCOc1ccc2c(c1)C(=O)N(C1CCC(=O)NC1=O)C2=O)C(=O)CCNc1nc(N2CCN(C(N)=O)CC2)c2cc(Cl)c(-c3cc(O)cc4ccccc34)c(F)c2n1 (stereo not shown) [compound 27, 4-(6-chloro-2-((3-((2-(2-((2-(2,6-dioxopiperidin-3-yl)-1,3-dioxoisoindolin-5-yl)oxy)ethoxy)ethyl)(methyl)amino)-3-oxopropyl)amino)-8-fluoro-7-(3-hydroxynaphthalen-1-yl)quinazolin-4-yl)piperazine-1-carboxamide] | C (Percent Degradation: C ≤ 35) | C (Percent Degradation: C ≤ 35) | C (Percent Degradation: C ≤ 35) | ≤ 35% |  |  |  | 
CN(CCOCCNc1cccc2c1C(=O)N(C1CCC(=O)NC1=O)C2=O)C(=O)CCNc1nc(N2CCN(C(N)=O)CC2)c2cc(Cl)c(-c3cc(O)cc4ccccc34)c(F)c2n1 (stereo not shown) [compound 32, 4-(6-chloro-2-((3-((2-(2-((2-(2,6-dioxopiperidin-3-yl)-1,3-dioxoisoindolin-4-yl)amino)ethoxy)ethyl)(methyl)amino)-3-oxopropyl)amino)-8-fluoro-7-(3-hydroxynaphthalen-1-yl)quinazolin-4-yl)piperazine-1-carboxamide] | C (Percent Degradation: C ≤ 35) | C (Percent Degradation: C ≤ 35) | C (Percent Degradation: C ≤ 35) | ≤ 35% |  |  |  | 
CN(CCOCCOCCOCCNc1cccc2c1C(=O)N(C1CCC(=O)NC1=O)C2=O)C(=O)CCNc1nc(N2CCN(C(N)=O)CC2)c2cc(Cl)c(-c3cc(O)cc4ccccc34)c(F)c2n1 (stereo not shown) [compound 34, 4-(6-chloro-2-((1-((2-(2,6-dioxopiperidin-3-yl)-1,3-dioxoisoindolin-4-yl)amino)-12-methyl-13-oxo-3,6,9-trioxa-12-azapentadecan-15-yl)amino)-8-fluoro-7-(3-hydroxynaphthalen-1-yl)quinazolin-4-yl)piperazine-1-carboxamide] | C (Percent Degradation: C ≤ 35) | C (Percent Degradation: C ≤ 35) | C (Percent Degradation: C ≤ 35) | ≤ 35% |  |  |  | 
CN(CCOCCOc1ccc2c(c1)CN(C1CCC(=O)NC1=O)C2=O)C(=O)CCNc1nc(N2CCN(C(N)=O)CC2)c2cc(Cl)c(-c3cc(O)cc4ccccc34)c(F)c2n1 (stereo not shown) [compound 37, 4-(6-chloro-2-((3-((2-(2-((2-(2,6-dioxopiperidin-3-yl)-1-oxoisoindolin-5-yl)oxy)ethoxy)ethyl)(methyl)amino)-3-oxopropyl)amino)-8-fluoro-7-(3-hydroxynaphthalen-1-yl)quinazolin-4-yl)piperazine-1-carboxamide] | C (Percent Degradation: C ≤ 35) | C (Percent Degradation: C ≤ 35) | C (Percent Degradation: C ≤ 35) | ≤ 35% |  |  |  | 
CN(CCOCCOCCOCCOc1ccc2c(c1)CN(C1CCC(=O)NC1=O)C2=O)C(=O)CCNc1nc(N2CCN(C(N)=O)CC2)c2cc(Cl)c(-c3cc(O)cc4ccccc34)c(F)c2n1 (stereo not shown) [compound 39, 4-(6-chloro-2-((1-((2-(2,6-dioxopiperidin-3-yl)-1-oxoisoindolin-5-yl)oxy)-12-methyl-13-oxo-3,6,9-trioxa-12-azapentadecan-15-yl)amino)-8-fluoro-7-(3-hydroxynaphthalen-1-yl)quinazolin-4-yl)piperazine-1-carboxamide] | C (Percent Degradation: C ≤ 35) | C (Percent Degradation: C ≤ 35) | C (Percent Degradation: C ≤ 35) | ≤ 35% |  |  |  | 
CCC(=O)N1CCN(c2nc(NCCC(=O)N(C)CCNc3cccc4c3C(=O)N(C3CCC(=O)NC3=O)C4=O)nc3c(F)c(-c4cc(O)cc5ccccc45)c(Cl)cc23)CC1 (stereo not shown) [compound 41, 3-((6-chloro-8-fluoro-7-(3-hydroxynaphthalen-1-yl)-4-(4-propionylpiperazin-1-yl)quinazolin-2-yl)amino)-N-(2-((2-(2,6-dioxopiperidin-3-yl)-1,3-dioxoisoindolin-4-yl)amino)ethyl)-N-methylpropanamide] |  |  |  |  | C (C ≤ 35) | C (C ≤ 35) | C (C ≤ 35) | ≤ 35%
CCC(=O)N1CCN(c2nc(NCCC(=O)N(C)CCOCCNc3cccc4c3C(=O)N(C3CCC(=O)NC3=O)C4=O)nc3c(F)c(-c4cc(O)cc5ccccc45)c(Cl)cc23)CC1 (stereo not shown) [compound 42, 3-((6-chloro-8-fluoro-7-(3-hydroxynaphthalen-1-yl)-4-(4-propionylpiperazin-1-yl)quinazolin-2-yl)amino)-N-(2-(2-((2-(2,6-dioxopiperidin-3-yl)-1,3-dioxoisoindolin-4-yl)amino)ethoxy)ethyl)-N-methylpropanamide] |  |  |  |  | C (C ≤ 35) | C (C ≤ 35) | C (C ≤ 35) | ≤ 35%
